{
  "source": "patent US10316008B2",
  "about": "“KCNQ potassium channel agonist, and preparation method therefor and use thereof” (SHANGHAI INSTITUTE OF MATERIA MEDICA, CHINESE ACADEMY OF …, priority 2014, dated 2019)",
  "assay": "Pharmacokinetics and distribution in brain tissue in rats",
  "assay_type": "in vivo, Sprague Dawley rats",
  "settings": "SD rats; for Vd: read-out: VdSS",
  "procedure": "After K43 was administered to Sprague Dawley rats via intravenous injection or oral administration, blood sample and brain tissue were collected at different time points. the concentration of K43 in plasma and brain of rats after administration of the compounds was analyzed by LC-MS/MS and used to calculate the pharmacokinetic parameters, evaluating the oral bioavailability and distribution in brain tissue of K43 in rats.\n24 SD rats, which were provided by SHANGHAI SLAC LABORATORY ANIMAL CO. LTD., were used to perform the experiments according to the following table.\nAbout 0.15 mL of blood was collected through orbit per animal every time, and EDTAK2 was used for anticoagulation. For IV group, the time points for collection were before administration (0 hr), and 5 min, 15 min, 30 min, 1 h, 2 h, 4 h, 6 h, 8 h and 24 h after administration; and for PO group, the time points for collection were before administration (0 hr), 15 min, 30 min, 1 h, 2 h, 4 h, 6 h, 8 h and 24 h after administration. The time points for collecting brain tissue were 0.25, 0.5, 1, 2, 4, 6 and 24 h. The collected blood samples were placed on icen, and plasma was centrifuged within 1 h (centrifugal condition: 12000 rpm, 2 min, 4° C.). The collected plasma was cryopreserved in a −20° C. refrigerator before analysis.\nPharmacokinetic parameters after administration were calculated according to the obtained data of plasma concentration using the non-compartmental model of WinNonlin V6.3.",
  "key": {"[1]": {"settings": "IV 0.500 mg/kg, plasma, individual animals IV-1 to IV-3, 0.5 mg/kg"}, "[2]": {"settings": "PO 5.00 mg/kg, plasma, individual animals PO-4 to PO-6, 5 mg/kg"}, "[3]": {"settings": "Sprague-Dawley, rat, plasma, iv, 0.5 mg/kg, IV 0.500 mg/kg, individual animals IV-1 to IV-3"}, "[4]": {"settings": "Sprague-Dawley, rat, plasma, iv, 0.5 mg/kg, IV 0.500 mg/kg, mean"}},
  "note": "Several values for one entry are separate records, joined by “and”; a condition that tells them apart may be missing. Equal entries are not always repeated. Where two headings read alike, the source gives them in different places.",
  "data": [
    {"smiles": "C#CCN(Cc1ccc(F)cc1)c1cc(C)c(NC(=O)OC)c(C)c1", "note": "[Compound K43, methyl 4-(N-parafluorobenzyl-N-propargyl-amino)-2,6-dimethylphenylaminoformate]", "values": [
      {"measurement": "AUC0-t", "setting": "[1]", "result": "232 ng·h/mL and 239 ng·h/mL"},
      {"measurement": "AUC(0-inf)", "setting": "[1]", "result": "236 ng·h/mL and 242 ng·h/mL"},
      {"measurement": "AUMC0-inf", "setting": "[1]", "result": "304 h · h · ng · mL^−1 and 295 h · h · ng · mL^−1 and 293 h · h · ng · mL^−1"},
      {"measurement": "AUMC0-t", "setting": "[1]", "result": "287 h · h · ng · mL^−1 and 258 h · h · ng · mL^−1 and 270 h · h · ng · mL^−1"},
      {"measurement": "CL", "setting": "[1]", "result": "35.3 mL/min/kg and 34.5 mL/min/kg"},
      {"measurement": "Kcl", "setting": "[1]", "result": "0.552 h⁻¹ and 0.427 h⁻¹ and 0.516 h⁻¹"},
      {"measurement": "MRTIV", "setting": "[1]", "result": "1.38 h and 1.25 h and 1.21 h"},
      {"measurement": "VdSS", "setting": "[1]", "result": "2.65 L/kg and 2.51 L/kg"},
      {"measurement": "t1/2", "setting": "[1]", "result": "1.62 h and 1.34 h"},
      {"measurement": "AUMC0-inf", "setting": "IV 0.500 mg/kg, plasma, mean", "result": 297, "unit": "h · h · ng · mL^−1"},
      {"measurement": "AUMC0-t", "setting": "IV 0.500 mg/kg, plasma, mean", "result": 271, "unit": "h · h · ng · mL^−1"},
      {"measurement": "Kcl", "setting": "IV 0.500 mg/kg, plasma, mean", "result": 0.498, "unit": "h⁻¹"},
      {"measurement": "MRTIV", "setting": "IV 0.500 mg/kg, plasma, mean", "result": 1.28, "unit": "h"},
      {"measurement": "AUC(0-inf)", "setting": "PO 5.00 mg/kg, brain tissue", "result": 4314, "unit": "ng·h/g"},
      {"measurement": "AUMC0-inf", "setting": "PO 5.00 mg/kg, brain tissue", "result": 85535, "unit": "h · h · ng · g^−1"},
      {"measurement": "AUMC0-t", "setting": "PO 5.00 mg/kg, brain tissue", "result": 25306, "unit": "h · h · ng · g^−1"},
      {"measurement": "Kel", "setting": "PO 5.00 mg/kg, brain tissue", "result": 0.0542, "unit": "h⁻¹"},
      {"measurement": "MRTPO", "setting": "PO 5.00 mg/kg, brain tissue", "result": 19.8, "unit": "h"},
      {"measurement": "AUC0-t", "setting": "PO 5.00 mg/kg, brain tissue (AUC0→24 hr)", "result": 2895, "unit": "ng·h/g"},
      {"measurement": "F", "setting": "PO 5.00 mg/kg, individual animals PO-4 to PO-6, 5 mg/kg", "result": "20.3% and 59.9% and 16.5%"},
      {"measurement": "AUC0-t", "setting": "[2]", "result": "467 ng·h/mL and 1379 ng·h/mL and 379 ng·h/mL"},
      {"measurement": "AUC(0-inf)", "setting": "[2]", "result": "471 ng·h/mL and 1605 ng·h/mL and 407 ng·h/mL"},
      {"measurement": "AUMC0-inf", "setting": "[2]", "result": "2497 h · h · ng · mL^−1 and 18103 h · h · ng · mL^−1 and 1256 h · h · ng · mL^−1"},
      {"measurement": "AUMC0-t", "setting": "[2]", "result": "2360 h · h · ng · mL^−1 and 10030 h · h · ng · mL^−1 and 957 h · h · ng · mL^−1"},
      {"measurement": "Cmax", "setting": "[2]", "result": "62.7 ng/mL and 138 ng/mL and 107 ng/mL"},
      {"measurement": "Kcl", "setting": "[2]", "result": "0.186 h⁻¹ and 0.0857 h⁻¹ and 0.371 h⁻¹"},
      {"measurement": "MRTPO", "setting": "[2]", "result": "5.30 h and 11.3 h and 3.09 h"},
      {"measurement": "Tmax", "setting": "[2]", "result": "4.00 h and 1.00 h"},
      {"measurement": "t1/2", "setting": "[2]", "result": "3.74 h and 8.09 h and 1.87 h"},
      {"measurement": "AUMC0-inf", "setting": "PO 5.00 mg/kg, plasma, mean", "result": 7285, "unit": "h · h · ng · mL^−1"},
      {"measurement": "AUMC0-t", "setting": "PO 5.00 mg/kg, plasma, mean", "result": 4449, "unit": "h · h · ng · mL^−1"},
      {"measurement": "Kcl", "setting": "PO 5.00 mg/kg, plasma, mean", "result": 0.214, "unit": "h⁻¹"},
      {"measurement": "MRTPO", "setting": "PO 5.00 mg/kg, plasma, mean", "result": 6.55, "unit": "h"},
      {"measurement": "half-life", "setting": "Sprague-Dawley, rat, brain, po, 5 mg/kg, PO 5.00 mg/kg, brain tissue", "result": 12.8, "unit": "h"},
      {"measurement": "Cmax", "setting": "Sprague-Dawley, rat, brain, po, 5 mg/kg, PO 5.00 mg/kg, brain tissue, read-out: Cmax", "result": 366, "unit": "ng/g"},
      {"measurement": "Tmax", "setting": "Sprague-Dawley, rat, brain, po, 5 mg/kg, PO 5.00 mg/kg, brain tissue, read-out: tmax", "result": 2, "unit": "h"},
      {"measurement": "clearance", "setting": "[3]", "result": 37.8, "unit": "mL/min/kg"},
      {"measurement": "half-life", "setting": "[3]", "result": 1.26, "unit": "h"},
      {"measurement": "clearance", "setting": "[4]", "result": "35.8 ± 1.7", "unit": "mL/min/kg"},
      {"measurement": "half-life", "setting": "[4]", "result": "1.41 ± 0.191", "unit": "h"},
      {"measurement": "AUC(0-inf)", "setting": "Sprague-Dawley, rat, plasma, iv, 0.5 mg/kg, IV 0.500 mg/kg, plasma, individual animals IV-1 to IV-3, read-out: AUC0-inf", "result": 221, "unit": "ng·h/mL"},
      {"measurement": "AUC0-t", "setting": "Sprague-Dawley, rat, plasma, iv, 0.5 mg/kg, IV 0.500 mg/kg, plasma, individual animals IV-1 to IV-3, read-out: AUC0-t", "result": 219, "unit": "ng·h/mL"},
      {"measurement": "Vd", "setting": "Sprague-Dawley, rat, plasma, iv, 0.5 mg/kg, IV 0.500 mg/kg, plasma, individual animals IV-1 to IV-3", "result": 3.13, "unit": "L/kg"},
      {"measurement": "AUC(0-inf)", "setting": "Sprague-Dawley, rat, plasma, iv, 0.5 mg/kg, IV 0.500 mg/kg, plasma, mean, read-out: AUC0-inf", "result": 233, "unit": "ng·h/mL"},
      {"measurement": "AUC0-t", "setting": "Sprague-Dawley, rat, plasma, iv, 0.5 mg/kg, IV 0.500 mg/kg, plasma, mean, read-out: AUC0-t", "result": 230, "unit": "ng·h/mL"},
      {"measurement": "Vd", "setting": "Sprague-Dawley, rat, plasma, iv, 0.5 mg/kg, IV 0.500 mg/kg, plasma, mean", "result": "2.76 ± 0.324", "unit": "L/kg"},
      {"measurement": "half-life", "setting": "Sprague-Dawley, rat, plasma, po, 5 mg/kg, PO 5.00 mg/kg, mean", "result": 4.56, "unit": "h"},
      {"measurement": "AUC0-t", "setting": "Sprague-Dawley, rat, plasma, po, 5 mg/kg, PO 5.00 mg/kg, plasma, mean (AUC0→24 hr), read-out: AUC0-t", "result": "742 ± 554", "unit": "ng·h/mL"},
      {"measurement": "AUC(0-inf)", "setting": "Sprague-Dawley, rat, plasma, po, 5 mg/kg, PO 5.00 mg/kg, plasma, mean, read-out: AUC0-inf", "result": 828, "unit": "ng·h/mL"},
      {"measurement": "Cmax", "setting": "Sprague-Dawley, rat, plasma, po, 5 mg/kg, PO 5.00 mg/kg, plasma, mean, read-out: Cmax", "result": "103 ± 37.8", "unit": "ng/mL"},
      {"measurement": "Tmax", "setting": "Sprague-Dawley, rat, plasma, po, 5 mg/kg, PO 5.00 mg/kg, plasma, mean, read-out: tmax", "result": "2.33 ± 1.53", "unit": "h"},
      {"measurement": "bioavailability", "setting": "Sprague-Dawley, rat, plasma, PO 5.00 mg/kg, mean, read-out: F (oral bioavailability)", "result": "32.2 ± 24.1", "unit": "%"}
    ]}
  ]
}
